# Results published in patent US20240131032A1, “AN ACTIVITY-GUIDED MAP OF ELECTROPHILE-CYSTEINE INTERACTIONS IN PRIMARY HUMAN IMMUNE CELLS” (The Scripps Research Institute, priority 2019, published 2024).
# Assays:
# NuRD complex member mRNA = test: mRNA expression of NuRD complex members (RNAseq); format: cell-based, human
# Method: FIG. 7B is a scatter plot representation of protein abundance changes caused by BPK-25 (10 μM, 24 h) in two independent replicate experiments, with decreases in NuRD complex components highlighted in red. FIG. 7C is a heatmap of top proteins with decreased abundance in BPK-25-treated T cells showing that the subset of these proteins in the NuRD complex (asterisks) were largely unaltered by other active compounds and blocked in their degradation by co-treatment with the proteasome inhibitor MG132. […] FIG. 7E is a bar graph […] showing time-dependent reductions in NuRD complex members in human T cells treated with BPK-25 (10 μM). Left, representative western blots. Right, quantification of changes in protein. […] FIG. 7G is a heat map showing the changes in cysteine reactivity for NuRD complex members in human T cells treated with BPK-25 and other active compounds. […]
# RNA quality was assessed using TapeStation 4200 and RNA-Seq libraries were prepared using the TruSeq stranded mRNA Sample Preparation Kit v2 according to Illumina protocols. Multiplexed libraries were validated using TapeStation 4200, normalized, pooled and quantified by qPCR for sequencing. […]
# Sequenced reads were quality-tested using FASTQC Andrews S. (2010). […] Mapping was carried out using default parameters (up to 10 mismatches per read, and up to 9 multi-mapping locations per read). […]
# [1] = tested on: NuRD complex members (MBD2, MBD3, GATAD2B); test: Cysteine reactivity profiles of NuRD complex members in treated T cells; format: binding, human; details: 3 h treatment
# Method: (§1) FIG. 7B is a scatter plot representation of protein abundance changes caused by BPK-25 (10 μM, 24 h) in two independent replicate experiments, with decreases in NuRD complex components highlighted in red. FIG. 7C is a heatmap of top proteins with decreased abundance in BPK-25-treated T cells showing that the subset of these proteins in the NuRD complex (asterisks) were largely unaltered by other active compounds and blocked in their degradation by co-treatment with the proteasome inhibitor MG132. […] FIG. 7E is a bar graph […] showing time-dependent reductions in NuRD complex members in human T cells treated with BPK-25 (10 μM). Left, representative western blots. Right, quantification of changes in protein. […]
# (§2) At individual TMT experiment level, the following filters were applied to remove low-quality peptides: removal of non-unique peptides; removal of half-tryptic peptides; removal of peptides with more than one internal miscleaved site; removal of peptides with low (<10,000) sum of reporter ion intensities for control channels, and peptides with high variation between the replicate control channels (coefficient of variance >0.5). R values (compound-treated vs. DMSO-treated) for each peptide entry were calculated using the reporter ion intensities of DMSO and compound treated TMT channels for each treatment group with a maximum ratio cap of 20. […]
# [2] = molecular target: T1, NuRD complex members (MBD2, MBD3, GATAD2B) (Homo sapiens, UniProt Q8WXI9); test: as above; format: binding
# T1 construct: endogenous in cells; host or cells: primary human T cells, 3 h treatment
# T1 sequence (Q8WXI9 whole entry, one chain of several): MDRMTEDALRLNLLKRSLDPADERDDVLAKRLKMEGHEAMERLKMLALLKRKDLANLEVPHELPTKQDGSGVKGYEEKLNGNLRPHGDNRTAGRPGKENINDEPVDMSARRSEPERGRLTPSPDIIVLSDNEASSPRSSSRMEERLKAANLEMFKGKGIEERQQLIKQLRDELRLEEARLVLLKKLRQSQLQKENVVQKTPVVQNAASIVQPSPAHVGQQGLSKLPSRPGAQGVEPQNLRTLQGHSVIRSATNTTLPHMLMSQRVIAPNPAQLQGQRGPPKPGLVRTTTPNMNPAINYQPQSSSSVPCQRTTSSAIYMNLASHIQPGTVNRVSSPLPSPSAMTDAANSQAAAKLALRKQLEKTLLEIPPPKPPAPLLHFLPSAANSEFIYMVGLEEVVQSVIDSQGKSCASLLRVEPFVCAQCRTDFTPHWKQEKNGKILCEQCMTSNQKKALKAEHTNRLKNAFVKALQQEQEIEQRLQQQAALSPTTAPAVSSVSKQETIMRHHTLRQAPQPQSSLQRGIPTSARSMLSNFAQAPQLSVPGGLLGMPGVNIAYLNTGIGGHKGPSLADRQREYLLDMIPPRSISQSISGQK
# Method: as §1, §2
# NF-κB = NF-κB activation in stimulated T cells (phosphorylation readout); format: cell-based, human; details: 24 h
# Method: All treatments were for 24 h.
# Freshly isolated T cells (2×10^5 cells/well) were harvested and stimulated as described before in a 96-well plate in the presence of DMSO or compounds of interest. Following the overnight treatment, the cells were pelleted in a U-bottom plate, harvested by centrifugation (600 g, 3 min, 4° C.), washed with PBS, and stained with near-IR LIVE/DEAD dye as described above. After the staining, intracellular phospho-NF-κB p65 (Ser536) levels were measured using PE conjugate of phospho-NF-κB p65 (Ser536) (93H1) rabbit antibody (Cell Signaling Technology) according to manufacturer's instructions. Briefly, the cells were washed with PBS and fixed with 4% PFA in PBS (100 μL, 15 min, rt). The cells were washed with PBS again (2×150 μL), placed on ice and permeabilized with 90% MeOH (100 μL/well, slow addition with gentle mixing by pipetting up and down). Following a 30 min incubation on ice, the plate was sealed and stored at −20° C. overnight. The following day, the cells were thawed on ice, washed with PBS (150 μL×2), and stained with PE conjugate of phospho-NF-κB p65 (Ser536) (93H1) rabbit antibody (50 μL, 1:100 dilution in incubation buffer (1% FBS in PBS)) for 1 h at rt in the dark. The cells were then washed with incubation buffer (150 μL×2) and resuspended in PBS for further flow cytometry analysis.
structure (smiles),measurement,setting,value
C=CC(=O)N(Cc1cccc(Cl)n1)c1ccc(C(=O)Nc2ccccc2)nc1 [BPK-25],mRNA expression for NuRD complex members,NuRD complex member mRNA,not accompanied by corresponding changes in mRNA expression
same,"reduction in C10/11 and C359 in MBD2, C266 in MBD3, and C308 of GATAD2B (cysteine reactivity profiles)",[1],~50%
"COC(=O)/C=C/C(=O)OC [DMF, reference compound]",apparent reactivity of C308 of GATAD2B,[2],decreased the apparent reactivity
C=CC(=O)N(Cc1cccc(Cl)c1Cl)c1ccc(Oc2ccccc2)c(C(F)(F)F)c1 [BPK-21],reductions in phosphorylation (NF-κB activation),NF-κB,did not appear to impact
